3 molecules from article PMC5992141, “Discovery of pancreastatin inhibitor PSTi8 for the treatment of insulin resistance and diabetes: studies in rodent models of diabetes mellitus” (Scientific Reports, 2018) can be followed below.

The target in data set [1] is T1, GRP78 receptor (Homo sapiens, UniProt P11021). Description: Competitive binding with sulphorhodamine labelled PST and PSTi8 in HepG2 cells. Also noted: endogenous in cells; host or cells: HepG2. The protocol: Sulphorhodamine B labelled PST and PSTi8 were synthesized and purified from Genpro Biotech, India. In HepG2 cells, the competitive binding assay of PST and PSTi8 were performed and the labelled PST and/or PSTi8 concentrations were measured at 568 nm and 584 nm, respectively.
T1 sequence (P11021 19-654): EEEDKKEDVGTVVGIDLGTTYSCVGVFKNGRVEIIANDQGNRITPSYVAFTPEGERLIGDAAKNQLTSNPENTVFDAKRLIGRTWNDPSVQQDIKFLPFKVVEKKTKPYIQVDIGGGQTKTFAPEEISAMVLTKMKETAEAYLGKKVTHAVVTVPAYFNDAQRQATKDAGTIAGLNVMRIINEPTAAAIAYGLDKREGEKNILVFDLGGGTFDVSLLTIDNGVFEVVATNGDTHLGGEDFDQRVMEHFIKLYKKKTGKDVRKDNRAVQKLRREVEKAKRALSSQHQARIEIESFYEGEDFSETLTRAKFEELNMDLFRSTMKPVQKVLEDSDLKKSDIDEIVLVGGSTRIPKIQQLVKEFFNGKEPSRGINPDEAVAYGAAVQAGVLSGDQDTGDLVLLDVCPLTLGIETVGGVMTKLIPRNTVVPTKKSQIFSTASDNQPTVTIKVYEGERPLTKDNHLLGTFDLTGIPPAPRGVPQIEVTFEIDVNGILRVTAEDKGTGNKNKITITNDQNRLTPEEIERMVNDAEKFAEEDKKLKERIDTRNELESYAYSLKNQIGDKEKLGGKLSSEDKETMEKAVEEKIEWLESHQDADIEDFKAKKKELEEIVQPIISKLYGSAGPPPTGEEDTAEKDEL

A short description of data set [2]: In-vivo pharmacokinetic study in db/db mice. Particulars: i.p. 5 mg/kg, SPE, LC-MS/MS. The protocol: PSTi8 (5 mg/kg) was administered (i.p) in db/db mice for PK study. After dosing, blood samples were collected at different time points. Plasma samples (100 µL) were processed using the solid phase extraction (SPE). The 100 µL of eluted SPE samples were injected into the liquid chromatography tandem mass spectrometry (LC-MS/MS) (API 4000QTRAP, ABSciex, Canada) for analysis. The PK profile and parameters were evaluated by non-compartmental model approach using Pheonix 6.3 WinNonlin(Pharsight Corporation, USA).

The target of data set [3] is T1, GRP78 receptor. Description: GRP78 ATPase enzymatic activity (Malachite green-phosphate assay). The class given is biochemical. Also noted: purchased Abcam Inc., Cambridge, MA ab78432. Conditions: PSTi8 5 µM with PST 1 µM, GRP78 0.25 µM, 100 µM ATP, 37 °C, 30 min. The protocol: To determine that PSTi8 inhibit PST inhibitory action on GRP78 ATPase activity, we perform Concentration-dependent spectrophotometric assays using recombinant human GRP78 protein (catalog # ab78432, Abcam Inc., Cambridge, MA). PSTi8 was co-incubated with PST (1 µM) at different doses (1, 2.5 and 5 µM) in 50 µl of assay buffer (20 mM Tris, pH 7.5, 50 mM KCl, 1.5 mM MgCl2) containing GRP78 protein (0.25 µM). The reaction was started by adding 100 µM ATP and incubated at 37 °C for 30 min. On ATP hydrolysis free phosphate (Pi) was measured by a Malachite green-phosphate assay (catalog #10009325, Cayman)[11].

Another data set has as its system C57Bl/6 mice. The data set is described as follows: Glucose reduction experiment, normoglycemic mice. The class given is in vivo. Conditions: control C57Bl/6 mice (normoglycemic), acute i.p. 5 mg/kg. The protocol: (§1) All animal experiments were performed according to protocols approved by Institutional Animal Ethics Committee (IAEC approval no. IAEC/2012/31-A), CSIR-Central Drug Research Institute (CSIR-CDRI, India). Male C57BL/6 mice (8–10 weeks, 15–20 g) and male db/db mice (10–12 weeks, 45–50 g) were obtained from Laboratory of Animal Division, CSIR-CDRI. […] After successful of model development diabetic mice divided in two groups, vehicle control group receive saline and treated group receive PSTi8. After acute (5 mg/kg) and chronic (2 mg/kg) treatment of PSTi8 for 10 days, mice were fasted for 6 hr before experiments and then sacrificed to collect plasma and tissues, which were snap frozen in liquid nitrogen.

In data set [4] the test system is HFrD-fed STZ induced IR mice. Description: i.p. glucose tolerance test (GTT), HFrD-fed mice. The class given is in vivo. Conditions: 6 h fasted, mean ± s.e.m., n = 6. The protocol:
as §1
(§2) i.p GTT, i.p ITT and i.p PTT were carried out in 6 hr fasted mice. The blood glucose level was measured from tail tip using Contour TS blood glucose meter. The AUC is calculated using GraphPad Prism 5.0 software[4],[13].

In data set [5] the test system is HFrD-fed STZ induced IR mice. Description: i.p. insulin tolerance test (ITT), HFrD-fed mice. Particulars: 6 h fasted, mean ± s.e.m., n = 6. The class given is in vivo. The protocol:
as §1, §2

Residues, ends and D or L forms follow the SMILES beside them.

The inhibition is the relative decrease from the control value, in per cent. A high value points to a strong effect. Molecule `CSCC[C@H](NC(=O)[C@H](CCC(=O)O)NC(=O)[C@H](CCC(=O)O)NC(=O)[C@H](CCC(=O)O)NC(=O)[C@H](CCC(=O)O)NC(=O)[C@H](CCC(=O)O)NC(=O)[C@H](CCCCN)NC(=O)[C@H](CCC(N)=O)NC(=O)[C@H](CCC(N)=O)NC(=O)[C@H](CO)NC(=O)[C@H](Cc1c[nH]cn1)NC(=O)[C@H](CCC(=O)O)NC(=O)[C@H](CCC(N)=O)NC(=O)[C@H](CCC(=O)O)NC(=O)CNC(=O)[C@H](CCCCN)NC(=O)CNC(=O)[C@H](CCC(=O)O)NC(=O)[C@@H]1CCCN1)C(=O)N[C@@H](C)C(=O)N[C@H](C(=O)N[C@H](C(=O)N1CCC[C@H]1C(=O)N[C@@H](CCC(N)=O)C(=O)NCC(=O)N[C@@H](CC(C)C)C(=O)N[C@@H](Cc1ccccc1)C(=O)N[C@@H](CCCNC(=N)N)C(=O)NCC(N)=O)C(C)C)C(C)C` [PST, Pancreastatin] (H-PEGKGEQEHSQQKEEEEEMAVVPQGLFRG-NH2) showed an inhibition at 0.1 µM at GRP78 receptor [1] (PST 100 nM against sulphorhodamine labelled PSTi8 150 nM) of over 50%.

As for `CSCC[C@H](NC(=O)[C@H](CCC(=O)O)NC(=O)[C@H](CCC(=O)O)NC(=O)[C@H](CCC(=O)O)NC(=O)[C@H](CCC(=O)O)NC(=O)[C@H](CCC(=O)O)NC(=O)[C@H](CCCCN)NC(=O)[C@H](CCC(N)=O)NC(=O)[C@H](CCC(N)=O)NC(=O)[C@H](CO)NC(=O)[C@H](Cc1c[nH]cn1)NC(=O)[C@H](CCC(=O)O)NC(=O)[C@H](CCC(N)=O)NC(=O)[C@H](CCC(=O)O)NC(=O)CNC(=O)[C@H](CCCCN)NC(=O)CNC(=O)[C@H](CCC(=O)O)NC(=O)[C@@H]1CCCN1)C(=O)N[C@@H](C)C(=O)N[C@H](C(N)=O)C(C)C` [PSTi8] (H-PEGKGEQEHSQQKEEEEEMAV-NH2), in data set [2], the “time up to which plasma concentration was observed” value is on record as at most 6 h. Further, on GRP78 receptor [3], the “enhancement of ATPase activity of GRP78 inhibited by PST” value is given as about 50%. Further, the inhibition at 0.3 µM at GRP78 receptor [1] (PSTi8 300 nM against sulphorhodamine labelled PST 25 nM) was over 50%. Also, the “effect on blood glucose level” value with C57Bl/6 mice is listed as “did not show any decrease in glucose level”.

On to `CN(C)C(=N)N=C(N)N` [metformin], for which the “AUC, i.p GTT” value in data set [4] (acute metformin p.o. 300 mg/kg, 30 min before glucose 1 g/kg) was found to be 44068.5 ± 3070.1 mg·min/dL; in data set [4] (chronic metformin p.o. 300 mg/kg for 7 days, glucose 1 g/kg) it was 36913.13 ± 891.89 mg·min/dL. Further, the “AUC, ipITT” value in data set [5] (acute metformin p.o. 300 mg/kg, 30 min before insulin 0.6 IU/kg) turned out to be 19828.5 ± 1004.11 mg·min/dL; in data set [5] (chronic metformin p.o. 300 mg/kg for 7 days, insulin 0.6 IU/kg), 16417.5 ± 1222.35 mg·min/dL.
